# Measured values from US11571421B2, “GABAA positive allosteric modulator compounds for treatment of itch and/or dermatitis” (NeuroCycle Therapeutics, Inc., priority 2018, dated 2023).
# Where “and” joins values, the source holds several entries; their conditions need not be identical. Equal entries are not always repeated.
# Test system: Chloroquine (CQ)-Induced Itch Model in Male C57BL/6 Mice
# Experiment: Chloroquine Induced Itch Model, AZD7325 (Example 2)
# Type: in vivo
# Experimental: Other GABAA positive allosteric modulators are predicted to have similar effects on pruritic conditions and dermatitis as PF-06372865. […] In this study, the efficacy of AZD7325 was evaluated in the Chloroquine Induced Itch Model in Male C57BL/6 Mice. […]
# AZD7325 was weighed into a clean glass container. A 5% 2-hydroxypropyl-β-cyclodextrin was added and the resulting mixture was mixed well using mild vortexing and sonicated for 15-20 minutes to provide a homogeneous suspension.
# 21 mg of chloroquine phosphate was weighed in a clean glass container. 5.2 mL PBS was added, and the resulting mixture was mixed well using mild vortexing to form the desired strength solution.
# The right-side cheek area of all the animals was shaved with animal clippers 1 day prior to the experiment. Animals were randomized into different treatment groups based on body weight to avoid variability in weights across groups one day prior to experiment. Reference formulations and chloroquine phosphate solution were prepared on the day of the experiment.
# Animals were dosed per oral with respective treatment group using a dose volume of 10 ml/kg. Times of dosing were recorded. Immediately after compound treatment, animals were kept in a empty transparent chamber (23 cm length×17 cm width) for acclimatization and observation.
# Ninety (90) minutes post compound dosing, 50-μl of chloroquine phosphate solution (a 200-μg dose) was injected intracutaneously into the animal's right cheek. Animals were returned to the same chamber for observation. Animals were observed by an observer blind to the treatment group for a period of 30 minutes post chloroquine injection. Total number of bouts of scratching directed at the ipsilateral cheek were recorded for 30 minutes.
# [1] = 0.3 mg/kg PO, individual animals
# [2] = 10 mg/kg PO, individual animals
# [3] = 30 mg/kg PO, individual animals
smiles,measurement,setting,value
CCCNC(=O)c1nnc2c(-c3c(F)cccc3OC)cccc2c1N [AZD7325],"Scratching bouts (Nos.) In 30 min, 0-5 min","0.3 mg/kg PO, MEAN, N=6",1.17 Nos.
same,"Scratching bouts (Nos.) In 30 min, 5-10 min","0.3 mg/kg PO, MEAN, N=6",11.00 Nos.
same,"Scratching bouts (Nos.) In 30 min, 10-15 min","0.3 mg/kg PO, MEAN, N=6",17.17 Nos.
same,"Scratching bouts (Nos.) In 30 min, 15-20 min","0.3 mg/kg PO, MEAN, N=6",24.00 Nos.
same,"Scratching bouts (Nos.) In 30 min, 20-25min","0.3 mg/kg PO, MEAN, N=6",16.83 Nos.
same,"Scratching bouts (Nos.) In 30 min, 25-30 min","0.3 mg/kg PO, MEAN, N=6",24.00 Nos.
same,Total Scratching bouts,"0.3 mg/kg PO, MEAN, N=6",94.17 (Nos.)/30 min
same,"Scratching bouts (Nos.) In 30 min, 0-5 min",[1],0 Nos. (4×) and 5 Nos. and 2 Nos.
same,"Scratching bouts (Nos.) In 30 min, 5-10 min",[1],17 Nos. and 0 Nos. (2×) and 9 Nos. and 24 Nos. and 16 Nos.
same,"Scratching bouts (Nos.) In 30 min, 10-15 min",[1],22 Nos. and 25 Nos. and 10 Nos. and 15 Nos. and 1 Nos. and 30 Nos.
same,"Scratching bouts (Nos.) In 30 min, 15-20 min",[1],45 Nos. and 30 Nos. and 0 Nos. and 14 Nos. and 28 Nos. and 27 Nos.
same,"Scratching bouts (Nos.) In 30 min, 20-25min",[1],11 Nos. and 28 Nos. and 18 Nos. and 29 Nos. and 15 Nos. and 0 Nos.
same,"Scratching bouts (Nos.) In 30 min, 25-30 min",[1],21 Nos. and 15 Nos. (2×) and 31 Nos. and 23 Nos. and 39 Nos.
same,Total Scratching bouts,[1],116 (Nos.)/30 min and 98 (Nos.)/30 min and 73 (Nos.)/30 min and 105 (Nos.)/30 min and 61 (Nos.)/30 min and 112 (Nos.)/30 min
same,"Scratching bouts (Nos.) In 30 min, 0-5 min","1 mg/kg PO, MEAN, N=6",2.00 Nos.
same,"Scratching bouts (Nos.) In 30 min, 5-10 min","1 mg/kg PO, MEAN, N=6",10.33 Nos.
same,"Scratching bouts (Nos.) In 30 min, 10-15 min","1 mg/kg PO, MEAN, N=6",15.67 Nos.
same,"Scratching bouts (Nos.) In 30 min, 15-20 min","1 mg/kg PO, MEAN, N=6",22.33 Nos.
same,"Scratching bouts (Nos.) In 30 min, 20-25min","1 mg/kg PO, MEAN, N=6",19.17 Nos.
same,"Scratching bouts (Nos.) In 30 min, 25-30 min","1 mg/kg PO, MEAN, N=6",14.33 Nos.
same,Total Scratching bouts,"1 mg/kg PO, MEAN, N=6",83.83 (Nos.)/30 min
same,"Scratching bouts (Nos.) In 30 min, 0-5 min","1 mg/kg PO, individual animals",0 Nos. (2×) and 2 Nos. and 3 Nos. and 6 Nos. and 1 Nos.
same,"Scratching bouts (Nos.) In 30 min, 5-10 min","1 mg/kg PO, individual animals",1 Nos. and 7 Nos. and 18 Nos. and 36 Nos. and 0 Nos. (2×)
same,"Scratching bouts (Nos.) In 30 min, 10-15 min","1 mg/kg PO, individual animals",0 Nos. and 15 Nos. and 26 Nos. and 8 Nos. and 21 Nos. and 24 Nos.
same,"Scratching bouts (Nos.) In 30 min, 15-20 min","1 mg/kg PO, individual animals",30 Nos. and 24 Nos. and 14 Nos. and 7 Nos. and 44 Nos. and 15 Nos.
same,"Scratching bouts (Nos.) In 30 min, 20-25min","1 mg/kg PO, individual animals",48 Nos. and 38 Nos. and 7 Nos. and 10 Nos. and 12 Nos. and 0 Nos.
same,"Scratching bouts (Nos.) In 30 min, 25-30 min","1 mg/kg PO, individual animals",0 Nos. and 9 Nos. and 17 Nos. and 4 Nos. and 30 Nos. and 26 Nos.
same,Total Scratching bouts,"1 mg/kg PO, individual animals",79 (Nos.)/30 min and 95 (Nos.)/30 min and 85 (Nos.)/30 min and 65 (Nos.)/30 min and 113 (Nos.)/30 min and 66 (Nos.)/30 min
same,"Scratching bouts (Nos.) In 30 min, 0-5 min","3 mg/kg PO, MEAN, N=6",1.50 Nos.
same,"Scratching bouts (Nos.) In 30 min, 5-10 min","3 mg/kg PO, MEAN, N=6",7.50 Nos.
same,"Scratching bouts (Nos.) In 30 min, 10-15 min","3 mg/kg PO, MEAN, N=6",16.33 Nos.
same,"Scratching bouts (Nos.) In 30 min, 15-20 min","3 mg/kg PO, MEAN, N=6",17.17 Nos.
same,"Scratching bouts (Nos.) In 30 min, 20-25min","3 mg/kg PO, MEAN, N=6",13.33 Nos.
same,"Scratching bouts (Nos.) In 30 min, 25-30 min","3 mg/kg PO, MEAN, N=6",11.33 Nos.
same,Total Scratching bouts,"3 mg/kg PO, MEAN, N=6",67.17 (Nos.)/30 min
same,"Scratching bouts (Nos.) In 30 min, 0-5 min","3 mg/kg PO, individual animals",3 Nos. and 0 Nos. (4×) and 6 Nos.
same,"Scratching bouts (Nos.) In 30 min, 5-10 min","3 mg/kg PO, individual animals",0 Nos. (3×) and 31 Nos. and 12 Nos. and 2 Nos.
same,"Scratching bouts (Nos.) In 30 min, 10-15 min","3 mg/kg PO, individual animals",20 Nos. and 22 Nos. and 17 Nos. and 9 Nos. and 14 Nos. and 16 Nos.
same,"Scratching bouts (Nos.) In 30 min, 15-20 min","3 mg/kg PO, individual animals",18 Nos. and 5 Nos. and 35 Nos. and 26 Nos. and 19 Nos. and 0 Nos.
same,"Scratching bouts (Nos.) In 30 min, 20-25min","3 mg/kg PO, individual animals",2 Nos. and 32 Nos. and 22 Nos. and 6 Nos. and 10 Nos. and 8 Nos.
same,"Scratching bouts (Nos.) In 30 min, 25-30 min","3 mg/kg PO, individual animals",8 Nos. (2×) and 19 Nos. and 11 Nos. and 20 Nos. and 2 Nos.
same,Total Scratching bouts,"3 mg/kg PO, individual animals",51 (Nos.)/30 min and 78 (Nos.)/30 min and 119 (Nos.)/30 min and 64 (Nos.)/30 min and 63 (Nos.)/30 min and 28 (Nos.)/30 min
same,"Scratching bouts (Nos.) In 30 min, 0-5 min","10 mg/kg PO, MEAN, N=6",0.50 Nos.
same,"Scratching bouts (Nos.) In 30 min, 5-10 min","10 mg/kg PO, MEAN, N=6",6.17 Nos.
same,"Scratching bouts (Nos.) In 30 min, 10-15 min","10 mg/kg PO, MEAN, N=6",15.17 Nos.
same,"Scratching bouts (Nos.) In 30 min, 15-20 min","10 mg/kg PO, MEAN, N=6",12.50 Nos.
same,"Scratching bouts (Nos.) In 30 min, 20-25min","10 mg/kg PO, MEAN, N=6",13.67 Nos.
same,"Scratching bouts (Nos.) In 30 min, 25-30 min","10 mg/kg PO, MEAN, N=6",15.17 Nos.
same,Total Scratching bouts,"10 mg/kg PO, MEAN, N=6",63.17 (Nos.)/30 min
same,"Scratching bouts (Nos.) In 30 min, 0-5 min",[2],0 Nos. (4×) and 1 Nos. and 2 Nos.
same,"Scratching bouts (Nos.) In 30 min, 5-10 min",[2],7 Nos. (2×) and 0 Nos. (2×) and 22 Nos. and 1 Nos.
same,"Scratching bouts (Nos.) In 30 min, 10-15 min",[2],41 Nos. and 11 Nos. and 7 Nos. and 19 Nos. and 0 Nos. and 13 Nos.
same,"Scratching bouts (Nos.) In 30 min, 15-20 min",[2],9 Nos. and 0 Nos. (2×) and 22 Nos. and 25 Nos. and 19 Nos.
same,"Scratching bouts (Nos.) In 30 min, 20-25min",[2],0 Nos. (2×) and 10 Nos. and 20 Nos. and 19 Nos. and 33 Nos.
same,"Scratching bouts (Nos.) In 30 min, 25-30 min",[2],23 Nos. and 37 Nos. and 24 Nos. and 0 Nos. (2×) and 7 Nos.
same,Total Scratching bouts,[2],80 (Nos.)/30 min and 65 (Nos.)/30 min and 73 (Nos.)/30 min and 85 (Nos.)/30 min and 61 (Nos.)/30 min and 15 (Nos.)/30 min
same,"Scratching bouts (Nos.) In 30 min, 0-5 min","30 mg/kg PO, MEAN, N=6",5.17 Nos.
same,"Scratching bouts (Nos.) In 30 min, 5-10 min","30 mg/kg PO, MEAN, N=6",11.67 Nos.
same,"Scratching bouts (Nos.) In 30 min, 10-15 min","30 mg/kg PO, MEAN, N=6",7.17 Nos.
same,"Scratching bouts (Nos.) In 30 min, 15-20 min","30 mg/kg PO, MEAN, N=6",18.33 Nos.
same,"Scratching bouts (Nos.) In 30 min, 20-25min","30 mg/kg PO, MEAN, N=6",6.17 Nos.
same,"Scratching bouts (Nos.) In 30 min, 25-30 min","30 mg/kg PO, MEAN, N=6",2.83 Nos.
same,Total Scratching bouts,"30 mg/kg PO, MEAN, N=6",51.33 (Nos.)/30 min
same,"Scratching bouts (Nos.) In 30 min, 0-5 min",[3],0 Nos. (3×) and 1 Nos. and 20 Nos. and 10 Nos.
same,"Scratching bouts (Nos.) In 30 min, 5-10 min",[3],9 Nos. and 15 Nos. and 0 Nos. (2×) and 1 Nos. and 45 Nos.
same,"Scratching bouts (Nos.) In 30 min, 10-15 min",[3],8 Nos. and 1 Nos. and 22 Nos. and 3 Nos. and 9 Nos. and 0 Nos.
same,"Scratching bouts (Nos.) In 30 min, 15-20 min",[3],29 Nos. and 0 Nos. and 11 Nos. and 10 Nos. and 47 Nos. and 13 Nos.
same,"Scratching bouts (Nos.) In 30 min, 20-25min",[3],5 Nos. and 0 Nos. (3×) and 16 Nos. (2×)
same,"Scratching bouts (Nos.) In 30 min, 25-30 min",[3],0 Nos. (4×) and 12 Nos. and 5 Nos.
same,Total Scratching bouts,[3],51 (Nos.)/30 min and 29 (Nos.)/30 min and 69 (Nos.)/30 min and 18 (Nos.)/30 min and 57 (Nos.)/30 min and 84 (Nos.)/30 min
same,"scratching bouts compared to vehicle treatment, significance","at 1, 3, 10 and 30 mg/kg doses",Statistically significant decrease
same,"total number of scratching bouts, dose response","quantified for 30 minutes post CQ injection, 0.3-30 mg/kg PO",dose dependent decrease
